According to article PMC6662706, “Short amylin receptor antagonist peptides improve memory deficits in Alzheimer’s disease mouse model” (Scientific Reports, 2019):
No end group written: not given here.

Tests used:
[1] = Ex vivo NIR fluorescence brain imaging after ip injection (brain penetration); format: in vivo, mouse; settings: wild-type mice, 0, 0.6, 2, 10, 20 mg/kg single ip dose, 2 h, n = 3 per dose
Description: Blood brain barrier (BBB) penetration can limit the potential of long sequence peptides as therapeutic agents in central nervous system (CNS). Previously, we have reported that a cyclized form of AC253 peptide and to a lesser degree its linear form can both penetrate the BBB at therapeutically relevant levels, and are localized to the hippocampus and cortex, regions relevant to memory and learning processes. Therefore, we examined the ability of Cy5.5 labeled peptide fragments (R5, and R14) to penetrate BBB in wild-type mice using NIR fluorescence ex vivo brain imaging. Brain fluorescence resulting from either R5 or R14 was assessed against full length AC253 2 h after a single intraperitoneal (ip) injection of peptides. […] Fluorescence signals were distributed throughout the cortex, but particularly strong within the hippocampal regions, where a very high density of amylin receptor expression has been reported. […]
In vivo brain penetration and pharmacokinetics of the peptides were determined in 6-month-old male or female wild-type (C57BL/6 background) and heterozygous CTR mice (het-CTR). […]
For ex vivo imaging experiments and peptide brain uptake, we used age matched 6-month-old wild-type littermate (C57BL/6 background) mice. […] Region of interest was drawn around the brain region and analyzed using the Kodak ID 3.6 software and the mean fluorescence intensity was recorded. […]

[2] = Observation for off-target effects and body weight during 5 weeks of treatment; format: in vivo, mouse; settings: mice
Protocol: The determination of injection amount of R5 (200 µg/kg) was based on achieving equimolar concentrations as the full length peptide, cAC253[21] and prior studies that used pramlintide injections[22],[23]. The normal mouse circulated endogenous amylin level is 0.7 ± 0.4 pmol/L in plasma[32] and based upon our in vitro data (Fig. 1E) unlikely to perturb the function of peptides in vivo at these concentrations.

[3] = tested on: HEK-WT cells; experiment: Flow cytometry cell binding and uptake of Cy5.5 labeled peptides, HEK-WT cells; format: cell-based, human; settings: Cy5.5 labeled peptides 5 µM, 1 h, 37 °C
Protocol: Next, we labeled R5, R14 peptides with Cy5.5 to examine their in vitro binding efficacy and specificity compared with AC253 in HEK-AMY3 cells using flow cytometry and fluorescence microscopy (Fig. 1A,C).
For flow cytometry studies, HEK-AMY3 cells were used to determine cell binding and uptake and binding of Cy5.5 labeled AC253, and R5, R14, R11 fragments. Cell were plated at a density of 1.5 × 10^5 cells/well and cultured overnight in 12-well plates at 37 °C. Peptides (5 µM) were added and incubated for 1 h at 37 °C in serum free media. The culture media was then discarded, and cell monolayers were washed with PBS containing 2 mM EDTA and 0.5% BSA adjusted to pH 7.4 at 37°C, then cells were washed again with cold buffer and incubated with 0.25% trypsin to remove cell surface–associated fluorophores. Cells were then dispersed in FACS solution (10% FBS in PBS), and analyzed using a FACSCanto II flow cytometer (BD Biosciences, USA) selecting a detection window between 720 and 840 nm, and fluorescence histograms and dot plots were generated using FLOWJO software (Tree Star, Inc, USA). At least 10,000 gated events per sample were analyzed to develop the histogram. HEK-WT cells was used as negative control.

| Substance | accumulation in the brain at increasing dose [1] | body weight ([2]; 5 weeks of ip treatment) | signs of off-target effects (sedation, gait, feeding or drinking, weight loss, hair loss, grooming) ([2]; 5 weeks of ip treatment three times a week) | binding and uptake in HEK-WT cells compared to HEK-AMY3 cells [3] |
| --- | --- | --- | --- | --- |
| SQELHRLQTYPR-NH2 [R5] | dose-dependent | no significant changes in body weight | None of the mice receiving cAC253 or R5 showed any signs of off-target effects | – |
| LGRLSQELHRLQTYPRTNTGSNTY-NH2 (C-terminus assumed) [AC253, reference compound] | – | – | – | reduced binding and uptake |
